Experimental data reported in article PMC7526550, “Allosteric folding correction of F508del and rare CFTR mutants by elexacaftor-tezacaftor-ivacaftor (Trikafta) combination” (JCI Insight, 2020).
pKd: −log10 of the molar value.

Columns and labels:
CFTR (WT-NBD1-1S) = CFTR (WT-NBD1-1S) (Homo sapiens, UniProt P13569, F494N); test: biochemical; design: SPR (Biacore T200) steady-state affinity of correctors to immobilized biotinylated CFTR NBD1
Method: (§1) As described in our previous publication ([21]), binding interactions between biotinylated NBD1 constructs (WT-1S-, F508del-1S-, F508del-3S-NBD1; ~30 kDa each) and corrector compounds were examined with a BIACORE T200 system (GE Healthcare Bio-Sciences AB; Control software v2.0 and Evaluation software v1.0). Briefly, neutravidin (2 mg/mL in water, diluted to 50 μg/mL in 10 mM sodium acetate, pH 5.0; Thermo Fisher Scientific) was amine-coupled to S-series CM5 sensors (~12,000 RU per flow cell) at 25°C using filtered (0.2 μm) and degassed HBS-EP buffer (10 mM HEPES, pH 7.4; 150 mM NaCl; 3 mM EDTA; 0.005% [v/v] Tween-20). After subsequent cooling to 4°C (sample chamber and sensor) and equilibration in PBS running buffer (1× PBS pH 7.4 containing 10% [v/v] glycerol, 2 mM MgCl2, 1 mM ATP, 0.05% [v/v] Tween-20), reference (neutravidin only) and active surfaces (100 μg/mL NBD1 constructs in PBS buffer; capture 5000–8000 RU each) were equilibrated in PBS buffer containing 2% (v/v) DMSO at 10 μL/min. The corrector compounds were titrated over reference and NBD1-immobilized surfaces at 25–50 μL/min (1–2 minutes association plus 2–5 minutes dissociation; 2-fold dilution series for all compounds). Between titration series, the surfaces were regenerated at 50 μL/min using two 30-second pulses of solution I (PBS-DMSO buffer containing 1.0 M NaCl and 0.05% [v/v] Empigen [Anatrace]). […]

CFTR (F508del-NBD1-1S) = CFTR (F508del-NBD1-1S) (Homo sapiens, UniProt P13569, F494N/DEL508-508); design: SPR (Biacore T200) steady-state affinity of correctors to immobilized biotinylated CFTR NBD1; conditions: binder; read-out: ΔF508-NBD1-1S Mean KD
Sequence of CFTR (F508del-NBD1-1S) (P13569 with tags, fused parts or gaps F494N/DEL508-508 limits assumed): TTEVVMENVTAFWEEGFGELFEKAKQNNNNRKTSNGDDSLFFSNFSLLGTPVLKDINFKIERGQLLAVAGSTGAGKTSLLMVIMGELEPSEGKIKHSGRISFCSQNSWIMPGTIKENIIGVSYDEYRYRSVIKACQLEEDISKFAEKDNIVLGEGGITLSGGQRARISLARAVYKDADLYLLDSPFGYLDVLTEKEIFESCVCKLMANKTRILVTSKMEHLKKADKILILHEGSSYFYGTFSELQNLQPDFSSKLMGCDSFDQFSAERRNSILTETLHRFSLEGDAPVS
Method: as §1

Sequence of CFTR (WT-NBD1-1S) (P13569 389-678 F494N limits assumed): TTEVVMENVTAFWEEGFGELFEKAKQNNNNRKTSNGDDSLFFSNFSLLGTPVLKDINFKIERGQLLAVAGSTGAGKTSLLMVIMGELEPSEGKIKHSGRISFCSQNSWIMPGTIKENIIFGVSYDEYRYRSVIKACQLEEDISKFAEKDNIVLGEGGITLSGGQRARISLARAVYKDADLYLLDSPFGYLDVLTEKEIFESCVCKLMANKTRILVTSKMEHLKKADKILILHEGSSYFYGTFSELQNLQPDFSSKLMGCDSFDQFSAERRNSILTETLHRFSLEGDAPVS

| pKd (CFTR (WT-NBD1-1S)) | pKd (CFTR (F508del-NBD1-1S)) | SMILES |
| --- | --- | --- |
| < 3.70 | < 3.70 | CC(C)(CO)c1cc2cc(NC(=O)C3(c4ccc5c(c4)OC(F)(F)O5)CC3)c(F)cc2n1C[C@@H](O)CO [VX-661, tezacaftor] |
| 4.12 | 4.09 | Cc1nn(C)cc1S(=O)(=O)NC(=O)c1ccc(-n2ccc(OCC(C)(C)C(F)(F)F)n2)nc1N1C[C@@H](C)CC1(C)C [compound 20, VX-445] |
